According to ChEMBL document CHEMBL3120081, “Imidazopyridazine hepatitis C virus polymerase inhibitors. Structure-activity relationship studies and the discovery of a novel, traceless prodrug mechanism” (J Med Chem, 2014):
In brackets after ≈: the same amount, converted by molar mass.

Experiments:
Hepatitis C virus [1] = test: Antiviral activity against Hepatitis C virus genotype 1a infected in human HuH7 cells after 48 hrs by luciferase reporter gene assay; assay type: functional, organism-based, Hepacivirus hominis; conditions: subtype 1a, Huh-7, 48 h
Hepatitis C virus [2] = test: Antiviral activity against Hepatitis C virus genotype 1b infected in human HuH7 cells after 48 hrs by luciferase reporter gene assay; assay type: functional, organism-based, Hepacivirus hominis; conditions: Huh-7, 48 h
[3] = AUC in CD rat at 1 mg/kg, po by LC/MS/MS analysis; assay type: ADME, organism-based; design: dose 1 mg/kg, route oral; conditions: plasma
[4] = AUC in CD rat at 300 mg/kg by LC/MS/MS analysis; assay type: ADME, organism-based; design: dose 300 mg/kg; conditions: plasma
[5] = Half life in beagle dog at 1 mg/kg, iv by LC/MS/MS analysis; assay type: ADME, organism-based, Canis lupus familiaris; design: dose 1 mg/kg, route intravenous; conditions: in vivo
[6] = Intrinsic clearance in CD rat microsomes; assay type: ADME, Microsome
[7] = Half life in CD rat at 0.5 mg/kg, iv by LC/MS/MS analysis; assay type: ADME, organism-based; design: dose 0.5 mg/kg, route intravenous; conditions: in vivo
[8] = Intrinsic clearance in beagle dog microsomes; assay type: ADME, Canis lupus familiaris, Microsome
[9] = Cmax in CD rat at 10 mg/kg by LC/MS/MS analysis; assay type: ADME, organism-based; design: dose 10 mg/kg; conditions: in vivo
[10] = Cytotoxicity against human HepG2 cells after 48 hrs by WST assay; assay type: cell-based
[11] = Clearance in CD rat at 0.5 mg/kg, iv by LC/MS/MS analysis; assay type: ADME, organism-based; design: dose 0.5 mg/kg, route intravenous; conditions: in vivo
[12] = AUC in beagle dog at 1 mg/kg, po by LC/MS/MS analysis; assay type: ADME, organism-based, Canis lupus familiaris; design: dose 1 mg/kg, route oral; conditions: plasma
[13] = Cytotoxicity against human MT4 cells after 48 hrs by WST assay; assay type: cell-based
[14] = Oral bioavailability in beagle dog at 1 mg/kg by LC/MS/MS analysis; assay type: ADME, organism-based, Canis lupus familiaris; conditions: in vivo
[15] = Volume of distribution in CD rat at 0.5 mg/kg, iv by LC/MS/MS analysis; assay type: ADME, organism-based; design: dose 0.5 mg/kg, route intravenous; conditions: in vivo
[16] = AUC in CD rat at 10 mg/kg by LC/MS/MS analysis; assay type: ADME, organism-based; design: dose 10 mg/kg; conditions: plasma
[17] = AUC in CD rat at 100 mg/kg by LC/MS/MS analysis; assay type: ADME, organism-based; design: dose 100 mg/kg; conditions: plasma
[18] = Plasma protein binding in human at 5 uM after 4 hrs by rapid equilibrium dialysis technique; assay type: ADME, cell-free; conditions: read-out: PPB (converted)
[19] = Cmax in CD rat at 100 mg/kg by LC/MS/MS analysis; assay type: ADME, organism-based; design: dose 100 mg/kg; conditions: in vivo
[20] = Cmax in CD rat at 30 mg/kg by LC/MS/MS analysis; assay type: ADME, organism-based; design: dose 30 mg/kg; conditions: in vivo
[21] = AUC in CD rat at 30 mg/kg by LC/MS/MS analysis; assay type: ADME, organism-based; design: dose 30 mg/kg; conditions: plasma
[22] = Cmax in CD rat at 300 mg/kg by LC/MS/MS analysis; assay type: ADME, organism-based; design: dose 300 mg/kg; conditions: in vivo
[23] = Inhibition of Hepatitis C virus genotype 1b NS5B; design: species or system Hepatitis C virus subtype 1b
[24] = Oral bioavailability in CD rat at 1 mg/kg by LC/MS/MS analysis; assay type: ADME, organism-based; conditions: in vivo
[25] = Volume of distribution in beagle dog at 1 mg/kg, iv by LC/MS/MS analysis; assay type: ADME, organism-based, Canis lupus familiaris; design: dose 1 mg/kg, route intravenous; conditions: in vivo
[26] = Cytotoxicity against human HuH7 cells after 48 hrs by WST assay; assay type: cell-based, Huh-7
[27] = biological target: Voltage-gated inwardly rectifying potassium channel KCNH2 (Homo sapiens, UniProt Q12809); test: Inhibition of human ERG expressed in HEK293 cells; assay type: cell-based
[28] = Inhibition of Hepatitis C virus genotype 1b NS3; design: species or system Hepatitis C virus subtype 1b
[29] = Clearance in beagle dog at 1 mg/kg, iv by LC/MS/MS analysis; assay type: ADME, organism-based, Canis lupus familiaris; design: dose 1 mg/kg, route intravenous; conditions: in vivo
[30] = Aqueous solubility of the compound at pH 6.8; assay type: physicochemical
Canis familiaris = test: Hepatotoxicity in beagle dog at 10 to 600 mg/kg/day, po qd for 7 days; assay type: toxicity, organism-based, Canis lupus familiaris; design: route oral; conditions: in vivo, 168 h
[31] = Oral bioavailability in CD rat at 5 mg/kg by LC/MS/MS analysis; assay type: ADME, organism-based; conditions: in vivo
[32] = Solubility of the compound in phosphate buffered saline at pH 7.4 after 1 hr by chemiluminescence nitrogen detection assay; assay type: physicochemical
[33] = Oral bioavailability in beagle dog at 5 mg/kg by LC/MS/MS analysis; assay type: ADME, organism-based, Canis lupus familiaris; conditions: in vivo
Rattus norvegicus = test: Toxicity in rat at 10 to 1000 mg/kg/day, po qd for 7 days; assay type: organism-based; design: route oral; conditions: in vivo, 168 h
[34] = AUC in CD rat at 1000 mg/kg by LC/MS/MS analysis; assay type: ADME, organism-based; design: dose 1000 mg/kg; conditions: plasma
[35] = Stability of the compound in blood (unknown origin) assessed as 5-((2-(2,3-Difluorophenyl)-5H-imidazo[4,5-d]pyridazin-5-yl)-methyl)-3-(4-propoxy-2-(trifluoromethyl)phenyl)isoxazole level at 1 uM up to 60 mins by LC/MS/MS analysis; assay type: ADME, tissue-based; conditions: 1 h
Hepatocyte [36] = test: Stability in rat hepatocytes assessed as 5-((2-(2,3-Difluorophenyl)-5H-imidazo[4,5-d]pyridazin-5-yl)-methyl)-3-(4-propoxy-2-(trifluoromethyl)phenyl)isoxazole level at 0.5 uM by LC/MS/MS analysis; assay type: ADME, cell-based
[37] = Half life in blood (unknown origin) assessed as 5-((2-(2,3-Difluorophenyl)-5H-imidazo[4,5-d]pyridazin-5-yl)-methyl)-3-(4-propoxy-2-(trifluoromethyl)phenyl)isoxazole level; assay type: ADME, tissue-based
[38] = Stability of the compound in water assessed as 5-((2-(2,3-Difluorophenyl)-5H-imidazo[4,5-d]pyridazin-5-yl)-methyl)-3-(4-propoxy-2-(trifluoromethyl)phenyl)isoxazole level at 1 uM at pH 2 up to 60 mins by LC/MS/MS analysis; assay type: physicochemical; conditions: buffer, pH 2, 1 h
[39] = Stability of the compound in water assessed as 5-((2-(2,3-Difluorophenyl)-5H-imidazo[4,5-d]pyridazin-5-yl)-methyl)-3-(4-propoxy-2-(trifluoromethyl)phenyl)isoxazole level at 1 uM at pH 7 up to 60 mins by LC/MS/MS analysis; assay type: physicochemical; conditions: buffer, pH 7, 1 h
[40] = Stability in rat microsomes assessed as 5-((2-(2,3-Difluorophenyl)-5H-imidazo[4,5-d]pyridazin-5-yl)-methyl)-3-(4-propoxy-2-(trifluoromethyl)phenyl)isoxazole level at 0.5 uM by LC/MS/MS analysis; assay type: ADME, Microsome
Hepatocyte [41] = test: Half life in rat hepatocytes assessed as 5-((2-(2,3-Difluorophenyl)-5H-imidazo[4,5-d]pyridazin-5-yl)-methyl)-3-(4-propoxy-2-(trifluoromethyl)phenyl)isoxazole level; assay type: ADME, cell-based

Chain of Voltage-gated inwardly rectifying potassium channel KCNH2 (Q12809 whole entry): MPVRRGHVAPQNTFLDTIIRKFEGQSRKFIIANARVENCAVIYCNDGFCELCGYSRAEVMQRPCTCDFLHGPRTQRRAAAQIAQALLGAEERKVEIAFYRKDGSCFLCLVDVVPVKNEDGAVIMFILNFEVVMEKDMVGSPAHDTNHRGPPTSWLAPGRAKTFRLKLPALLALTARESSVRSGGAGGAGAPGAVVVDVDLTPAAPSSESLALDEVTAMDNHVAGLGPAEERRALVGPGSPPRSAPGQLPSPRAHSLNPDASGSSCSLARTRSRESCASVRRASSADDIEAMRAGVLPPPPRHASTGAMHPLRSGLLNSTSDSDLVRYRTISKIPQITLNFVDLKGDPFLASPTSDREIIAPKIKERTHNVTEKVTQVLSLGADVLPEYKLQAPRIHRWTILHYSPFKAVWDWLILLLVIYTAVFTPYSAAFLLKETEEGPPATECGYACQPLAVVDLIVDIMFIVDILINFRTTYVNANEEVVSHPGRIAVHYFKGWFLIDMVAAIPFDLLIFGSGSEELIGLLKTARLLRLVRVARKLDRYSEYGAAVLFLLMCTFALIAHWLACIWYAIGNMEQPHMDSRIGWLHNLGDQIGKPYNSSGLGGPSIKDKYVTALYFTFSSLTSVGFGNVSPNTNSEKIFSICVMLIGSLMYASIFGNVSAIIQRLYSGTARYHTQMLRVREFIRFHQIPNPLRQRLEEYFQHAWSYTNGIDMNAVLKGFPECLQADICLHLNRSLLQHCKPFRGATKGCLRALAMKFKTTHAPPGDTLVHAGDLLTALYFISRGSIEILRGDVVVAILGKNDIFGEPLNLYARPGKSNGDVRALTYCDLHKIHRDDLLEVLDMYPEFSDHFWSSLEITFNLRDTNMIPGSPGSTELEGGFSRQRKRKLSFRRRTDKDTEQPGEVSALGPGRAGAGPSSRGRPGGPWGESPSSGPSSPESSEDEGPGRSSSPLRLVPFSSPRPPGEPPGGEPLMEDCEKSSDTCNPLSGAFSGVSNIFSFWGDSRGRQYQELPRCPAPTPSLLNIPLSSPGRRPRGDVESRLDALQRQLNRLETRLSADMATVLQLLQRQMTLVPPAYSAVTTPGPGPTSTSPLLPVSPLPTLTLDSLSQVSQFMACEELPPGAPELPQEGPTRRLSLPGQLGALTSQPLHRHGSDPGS

Fc1cccc(-c2nc3cnn(Cc4ccc(-c5ccc(C(F)(F)F)cc5C(F)(F)F)cn4)cc-3n2)c1F
EC50 (Hepatitis C virus [1]): 300 nM
EC50 (Hepatitis C virus [2]): 40 nM

Fc1cccc(-c2nc3cnn(CCCc4ccc(C(F)(F)F)cc4C(F)(F)F)cc-3n2)c1F
EC50 (Hepatitis C virus [1]): 16000 nM
EC50 (Hepatitis C virus [2]): 52000 nM

CCCOc1ccc(-c2ccc(Cn3cc4nc(-c5cccc(F)c5F)nc-4cn3)nn2)c(C(F)(F)F)c1
EC50 (Hepatitis C virus [1]): 18 nM
EC50 (Hepatitis C virus [2]): 7 nM

COc1ncc(-c2cc(Cn3cc4nc(-c5cccc(F)c5F)nc-4cn3)on2)cn1
EC50 (Hepatitis C virus [1]): > 50000 nM
EC50 (Hepatitis C virus [2]): > 50000 nM

Fc1ccccc1-c1nc2ccn(Cc3ccc(-c4ccc(C(F)(F)F)cc4C(F)(F)F)nn3)cc-2n1 [TEGOBUVIR]
EC50 (Hepatitis C virus [2]): 5 nM

Fc1cccc(-c2nc3cnn(Cc4cc(-c5ccc(C(F)(F)F)cc5C(F)(F)F)no4)cc-3n2)c1F
AUC [3]: 6300 ng·h/mL
AUC [4]: 31000 ng·h/mL
EC50 (Hepatitis C virus [1]): 120 nM
half-life [5]: 6.9 h
CLint scaled [6]: < 10 mL/min/kg
half-life [7]: 3.1 h
CLint scaled [8]: < 10 mL/min/kg
Cmax [9]: 1900 ng/mL
CC50 at 48 h [10]: > 50000 nM
clearance [11]: 3 mL/min/kg
AUC [12]: 2000 ng·h/mL
CC50 at 48 h [13]: > 50000 nM
bioavailability [14]: 18.8%
Vd [15]: 0.57 L/kg
AUC [16]: 25000 ng·h/mL
AUC [17]: 102000 ng·h/mL
EC50 (Hepatitis C virus [2]): 16 nM
fraction unbound at 4 h, 5 µM [18]: 0.002
Cmax [19]: 7400 ng/mL
Cmax [20]: 7200 ng/mL
AUC [21]: 98000 ng·h/mL
Cmax [22]: 2900 ng/mL
IC50 [23]: > 50000 nM
bioavailability [24]: 109%
Vd [25]: 0.83 L/kg
CC50 at 48 h [26]: > 50000 nM
IC50 [27]: > 50100 nM
IC50 [28]: > 50000 nM
clearance [29]: 2.7 mL/min/kg
solubility [30]: < 0.01 µg/mL

CCCOc1ccc(-c2cc(Cn3cc4nc(-c5cccc(F)c5F)nc-4cn3)no2)cc1
EC50 (Hepatitis C virus [1]): 110 nM
EC50 (Hepatitis C virus [2]): 40 nM

COc1ccc(-c2cc(Cn3cc4nc(-c5cccc(F)c5F)nc-4cn3)on2)cc1
EC50 (Hepatitis C virus [1]): 300 nM
EC50 (Hepatitis C virus [2]): 90 nM

Fc1cccc(F)c1-c1nc2cnn(Cc3cc(-c4ccc(C(F)(F)F)cc4C(F)(F)F)no3)cc-2n1
EC50 (Hepatitis C virus [2]): 5000 nM

Fc1ccccc1-c1nc2cnn(Cc3cc(-c4ccc(Cl)cc4)no3)cc-2n1
EC50 (Hepatitis C virus [2]): 170 nM

CCCOc1ccc(-c2cnc(Cn3cc4nc(-c5cccc(F)c5F)nc-4cn3)nc2)c(C(F)(F)F)c1
EC50 (Hepatitis C virus [1]): 300 nM
EC50 (Hepatitis C virus [2]): 240 nM

Fc1ccccc1-c1nc2cnn(Cc3cc(-c4ccc(C(F)(F)F)cc4C(F)(F)F)no3)cc-2n1
EC50 (Hepatitis C virus [1]): 3700 nM
EC50 (Hepatitis C virus [2]): 110 nM

CCCOc1ccc(-c2cc(C(C(=O)OCCOCCO)n3cc4nc(-c5cccc(F)c5F)nc-4cn3)on2)c(C(F)(F)F)c1 (configuration not stated)
EC50 (Hepatitis C virus [1]): 11 nM
Activity (Canis familiaris): Toxic
bioavailability [31]: 98%
solubility kinetic at 1 h [32]: 24 µM (≈ 15.5 µg/mL)
bioavailability [33]: 91%
EC50 (Hepatitis C virus [2]): 3 nM
Activity (Rattus norvegicus): Non-toxic
AUC [34]: 325000 ng·h/mL

CCCCc1ccc(-c2cc(Cn3cc4nc(-c5cccc(F)c5F)nc-4cn3)on2)cc1
EC50 (Hepatitis C virus [1]): 80 nM
EC50 (Hepatitis C virus [2]): 10 nM

CCCOc1ccc(-c2cc(C(C(=O)OC)n3cc4nc(-c5cccc(F)c5F)nc-4cn3)on2)c(C(F)(F)F)c1 (configuration not stated)
EC50 (Hepatitis C virus [1]): 21 nM
Stability [35]: Stable
bioavailability [31]: 80%
solubility kinetic at 1 h [32]: 17 µM (≈ 9.75 µg/mL)
bioavailability [33]: 51%
Stability (Hepatocyte [36]): Stable
EC50 (Hepatitis C virus [2]): 3 nM
t1/2 [37]: 0.25 h
Stability [38]: Stable
Stability [39]: Stable
Stability [40]: Stable
t1/2 (Hepatocyte [41]): 0.25 h
AUC [34]: 118000 ng·h/mL
